Measurements taken from US12005123B2, “Conjugate of isotretinoin and peptide” (CAREGEN CO., LTD., priority 2017, dated 2024).
Like-named read-outs stand apart in the source and are kept apart here.

What was measured:
[1] = cited from earlier work
[2] = background statement; cited from earlier work
[3] = Solubility test in distilled water; type: physicochemical; conditions: 10 mg/ml, FIG. 1

Row | Structure (SMILES) | blood concentration of active metabolite versus isotretinoin ([1]; 6 hours after administration) | solubility in water [2] | solubility in water [3] | fasting bioavailability ([1]; fasting) | time to reach the highest blood concentration ([1]; oral administration)
1 | CC1=C(/C=C/C(C)=C/C=C/C(C)=C/C(=O)O)C(C)(C)CCC1=O [4-oxo-isotretinoin] | higher than the blood concentration of isotretinoin | – | – | – | –
2 | CC1=C(/C=C/C(C)=C/C=C/C(C)=C\C(=O)O)C(C)(C)CCC1 [isotretinoin, 13-cis-retinoic acid] | – | low | hardly dissolved in water | about 20% | 2 to 4 h
